Results on eight molecules are retold here after US5480983A, “Adenosine derivatives, preparation methods and pharmaceutical compositions containing them” (Laboratoires UPSA, priority 1992, dated 1996).

Experiment [1] deals with T1, rat central A2 adenosinergic receptors (Rattus norvegicus, UniProt P30543).
T1 construct: the striatum is removed from each of them (Bruns et al., 1986); from tissue; host or cells: rat striatum, homogenate (membrane preparation)
Kind of experiment: Binding to adenosine A2 receptors ([3H] NECA displacement). The conditions noted are these: [3H] NECA 4 nM, n=3; for inhibition at 10 µM: read-out: % displacement of the labeled ligand, A2, 1E-5M; for inhibition at 0.1 µM: read-out: % displacement of the labeled ligand, A2, 1E-7M. The procedure: (§1) The affinity of the products of the Examples for the rat central A1 and A2 adenosinergic receptors is determined by the competitive technique using a radioactive ligand specifically bound either to the A1 receptors ([^3 H] PIA) or to the A2 receptors ([^3 H] NECA).
Method of studying the A2 receptors Membrane preparation
After decapitation of the animal, the brain is quickly removed and washed in cold isotonic solution. The two hemispheres are separated and the striatum is removed from each of them (Bruns et al., 1986), weighed and introduced into a polyallomer tube containing 10 volumes of cold homogenization buffer. The tissue is homogenized with an Ultra-Turrax for 30 seconds (3 times 10 seconds with 10-second intervals, 70% of the maximum speed). The ground material is centrifuged at 50,000 g (≈20,500 rpm) for 10 minutes at 4° C.
The residue obtained is resuspended in 10 volumes of homogenization buffer using a Vortex and homogenized with the Ultra-Turrax (5 to 10 seconds, 70% of the maximum speed).
Adenosine deaminase is then added at a rate of 1 U/ml, i.e. 1 μl/ml of homogenate, using a 10 μl Hamilton syringe. The homogenate treated in this way is shaken at room temperature for 30 minutes.
When the incubation is complete, the homogenate is centrifuged at 50,000 g (≈20,500 rpm) for 10 minutes at 4° C.
The residue is taken up with 5 volumes of cold homogenization buffer and passed through the Ultra-Turrax (2 times 10 seconds with a 10-second interval, 70% of the maximum speed) and the homogenate prepared in this way is finally frozen at -70° C. Competitive test
After the homogenate has been thawed at room temperature, 15 volumes of incubation buffer are added. The homogenate is shaken on a Vortex, passed through a Potter mill (6 to-and-fro movements, speed 6), diluted to 1/10 in incubation buffer and finally placed in a water bath thermostated at 4° C., with shaking, until the end of the experiment.
50 μl of [^3 H] NECA at 160 nM, i.e. 4 nM in the final reaction medium allowing for the 1/40 dilution, and 50 μl of the product of the Example at the concentrations considered (10^-5 M and 10^-7 M) are introduced into the reaction tubes. The reaction is initiated by the addition of 1 ml of homogenate and 900 μl of incubation buffer. The procedure is similar for all the compounds studied.
The tubes are shaken and incubated in a water bath at 25° C. for 60 minutes. When the incubation is complete, the contents of the tubes are filtered on Whatman GF/B paper. Each tube is washed twice with 2 ml of rinsing buffer and then the filters themselves are rinsed with 3 ml of this same buffer before being transferred to counting flasks.
10 ml of liquid scintillator (Ready Solv HP/b, Beckman) are added to all the flasks. These are shaken and stored in a refrigerator overnight. The radioactivity is determined in a liquid scintillation counter.
3 tests are performed for each concentration studied. The non-specific binding of the [^3 H] NECA is determined by measuring the amount of radioactivity retained on the filter in the presence of 5 μM N-ethylcarboxamidoadenosine (NECA). The value of the non-specific binding is systematically subtracted from that of the tests.
(§2) The results are expressed for each product in the form of the percentage displacement (n=3) of the labeled radioligand at concentrations of 10^-5 M and 10^-7 M.

Experiment [2] concerns the target T2, rat central A1 adenosinergic receptors (Rattus norvegicus, UniProt P25099).
T2 construct: After the animal has been sacrificed by decapitation, the brain is quickly removed and washed in cold isotonic solution; from tissue; host or cells: rat brain, membrane preparation from the two hemispheres
T2 sequence (P25099 1-326): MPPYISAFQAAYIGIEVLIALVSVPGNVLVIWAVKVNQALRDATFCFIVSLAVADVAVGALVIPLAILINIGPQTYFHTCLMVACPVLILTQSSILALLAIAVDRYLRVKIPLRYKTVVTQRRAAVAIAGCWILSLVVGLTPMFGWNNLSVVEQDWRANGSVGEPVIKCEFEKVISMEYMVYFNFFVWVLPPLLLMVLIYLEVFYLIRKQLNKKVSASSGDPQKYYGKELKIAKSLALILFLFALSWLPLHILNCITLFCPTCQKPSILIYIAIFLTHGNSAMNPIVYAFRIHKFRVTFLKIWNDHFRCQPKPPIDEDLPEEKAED
Kind of experiment: Binding to adenosine A1 receptors ([3H] PIA displacement). The conditions noted are these: [3H] PIA 2.5 nM, n=3; for inhibition at 10 µM: read-out: % displacement of the labeled ligand, A1, 1E-5M; for inhibition at 0.1 µM: read-out: % displacement of the labeled ligand, A1, 1E-7M. The procedure:
as §1
After the animal has been sacrificed by decapitation, the brain is quickly removed and washed in cold isotonic solution. The two hemispheres are separated and weighed and each of them is introduced into a polyallomer tube containing 25 volumes of cold homogenization buffer. Homogenization is effected using an Ultra-Turrax for 30 seconds (3 times 10 seconds with 10-second intervals, 70% of the maximum speed). The ground material obtained is centrifuged at 1000 g (≈3000 rpm) for 10 minutes at 4° C.
The supernatant is centrifuged again at 48,000 g (≈20,000 rpm) for 20 minutes at 4° C.
When this step is complete, the residue is taken up with 4 volumes of homogenization buffer, resuspended using a Vortex and homogenized with the Ultra-Turrax. Adenosine deaminase is then added at a rate of 1 U/ml, i.e. 1 μl/ml of homogenate, using a 10 μl Hamilton syringe.
After this treatment, the homogenate is shaken for 30 minutes at room temperature and then centrifuged at […] (≈20,000 rpm) for 30 minutes at 4° C.
The residue obtained is resuspended in 10 volumes of homogenization buffer and passed through the Ultra-Turrax for 20 seconds (2 times 10 seconds with a 10-second interval, 70% of the maximum speed).
The homogenate prepared in this way is used for the competitive tests. It is kept at 4° C. if the studies take place the same day, or stored at -20° C. in the form of 10 ml aliquots.
After the homogenate has been thawed at room temperature, it is passed through a Potter mill (6 manual to-and-fro movements, speed 6), diluted to 2/5 in incubation buffer and placed in a water bath thermostated at 4° C., with shaking, until the end of the experiment.
50 μl of [^3 H] PIA at 100 nM, i.e. 2.5 nM in the final reaction medium allowing for the 1/40 dilution, and 50 μl of the product of the Example at the concentrations considered ([…] and 10^-7 M) are introduced into the reaction tubes. The reaction is initiated by the addition of 1 ml of homogenate and 900 μl of incubation buffer. The procedure is identical for all the […] studied.
The tubes are shaken and incubated in a water bath at 20° C. for 30 minutes. When the incubation is complete, the contents of the tubes are filtered on Whatman GF/B paper. Each tube is washed twice with 2 ml of rinsing buffer and then the filters themselves are rinsed with 3 ml of this same buffer.
The filters are then transferred to counting flasks and 10 ml of liquid scintillator (Ready Solv HP/b, Beckman) are added.
After they have been shaken, the flasks are stored in a refrigerator overnight and the radio-activity is then determined in a liquid scintillation counter.
3 tests are performed for each concentration studied. The non-specific binding of the [^3 H] PIA is assessed by measuring the amount of radioactivity retained on the filter in the presence of 10^-5 M phenylisopropyladenosine (PIA). The value of the non-specific binding is systematically subtracted from that of the tests.
as §2

A short description of experiment [3]: Phenylbenzoquinone test (analgesic activity). The settings on record: Mus musculus, 1 h; mice; oral, one hour before phenylbenzoquinone i.p.; 5 minutes observation; read-out: Phenylbenzoquinone test 50% inhibitory dose. It is filed as in vivo. The protocol:
2. Phenylbenzoquinone test
The intraperitoneal injection of phenylbenzoquinone causes twisting and stretching movements in mice. Analgesics prevent or reduce this syndrome, which can be considered as the exteriorization of diffuse abdominal pain.
A 0.02% solution of phenylbenzoquinone in water is administered in a volume of 1 ml/100 g.
The products of the Examples are administered orally one hour before the injection of phenylbenzoquinone.
The stretching and twisting movements are counted for each mouse over an observation period of 5 minutes.

T1 sequence (P30543 whole entry): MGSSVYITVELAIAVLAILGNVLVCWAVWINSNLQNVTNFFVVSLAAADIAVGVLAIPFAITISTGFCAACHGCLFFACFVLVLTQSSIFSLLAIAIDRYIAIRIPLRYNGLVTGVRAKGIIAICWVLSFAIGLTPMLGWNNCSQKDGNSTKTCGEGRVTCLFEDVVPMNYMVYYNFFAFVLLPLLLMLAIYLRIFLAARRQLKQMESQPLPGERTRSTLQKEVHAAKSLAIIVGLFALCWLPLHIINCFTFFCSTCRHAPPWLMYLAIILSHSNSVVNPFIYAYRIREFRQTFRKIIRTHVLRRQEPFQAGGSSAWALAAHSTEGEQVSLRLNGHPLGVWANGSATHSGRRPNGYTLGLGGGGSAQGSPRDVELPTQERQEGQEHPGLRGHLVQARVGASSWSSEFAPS

On to `O=C(NC1CC1)[C@H]1O[C@@H](n2cnc3c(NCCc4cn(Cc5ccc(Cl)cc5)c5ccccc45)ncnc32)[C@H](O)[C@@H]1O` [Example 61, β-D-Ribofuranuronamido-1-[6-[[2-[1-(4-chlorobenzyl)indol-3-yl]ethyl]amino]-9H-purin-9-yl]-N-cyclopropyl-1-deoxy], for which the inhibition at 10 µM in experiment [1] (1E-5M) was determined as 91%; in experiment [2] (1E-5M), 98%. For the same molecule, the inhibition at 0.1 µM in experiment [1] (1E-7M) came out at 30%; in experiment [2] (1E-7M), 47%. The ED50 in experiment [3] stood at 0.9 mg/kg.

On to `COCCn1cc(CCNc2ncnc3c2ncn3[C@@H]2O[C@H](C(=O)NC3CC3)[C@@H](O)[C@H]2O)c2ccccc21` [Example 63, β-D-Ribofuranuronamido-N-cyclopropyl-1-deoxy-1-[6-[[2-[1-(2-methoxyethyl)indol-3-yl]ethyl]amino]-9H-purin-9-yl]], for which the inhibition at 10 µM in experiment [1] (1E-5M) was determined as 90%; in experiment [2] (1E-5M), 98%. Besides, the inhibition at 0.1 µM is 19% in experiment [1] (1E-7M) and 61% in experiment [2] (1E-7M). Besides, the ED50 in experiment [3] is 10 mg/kg.

Turning to `O=C(NC1CC1)[C@H]1O[C@@H](n2cnc3c(NCCc4cn(C5CCCC5)c5ccccc45)ncnc32)[C@H](O)[C@@H]1O` [Example 64, β-D-Ribofuranuronamido-1-[6-[[2-[1-cyclopentylindol-3-yl]ethyl]amino]-9H-purin-9-yl]-N-cyclopropyl-1-deoxy], the inhibition at 10 µM is 90% in experiment [1] (1E-5M) and 96% in experiment [2] (1E-5M). For the same molecule, the inhibition at 0.1 µM was 28% in experiment [1] (1E-7M) and 21% in experiment [2] (1E-7M). For the same molecule, in experiment [3], the ED50 was 0.3 mg/kg.

Regarding `CC(C)n1cc(CCNc2ncnc3c2ncn3[C@@H]2O[C@H](C(=O)NC3CC3)[C@@H](O)[C@H]2O)c2ccccc21` [Example 65, β-D-Ribofuranuronamido-N-cyclopropyl-1-deoxy-1-[6-[[2-[1-isopropylindol-3-yl]-ethyl]amino]-9H-purin-9-yl]], the inhibition at 10 µM in experiment [1] (1E-5M) stood at 91%; in experiment [2] (1E-5M), 87%. For the same molecule, the inhibition at 0.1 µM in experiment [1] (1E-7M) worked out at 14%; in experiment [2] (1E-7M) it was 4%. Moreover, the ED50 in experiment [3] came to 0.3 mg/kg.

Take `Cc1ccc(Cn2cc(CCNc3ncnc4c3ncn4[C@@H]3O[C@H](C(=O)NC4CC4)[C@@H](O)[C@H]3O)c3ccccc32)cc1` [Example 66, β-D-Ribofuranuronamido-N-cyclopropyl-1-deoxy-1-[6-[[2-[1-(4-methylbenzyl)indol-3-yl]ethyl]amino]-9H-purin-9-yl]]: the inhibition at 10 µM in experiment [1] (1E-5M) is 89%; in experiment [2] (1E-5M), 97%. The inhibition at 0.1 µM is 21% in experiment [1] (1E-7M) and 37% in experiment [2] (1E-7M). The ED50 in experiment [3] stood at 3 mg/kg.

Consider `O=C(NC1CC1)[C@H]1O[C@@H](n2cnc3c(NCCc4cn(CCN5CCOCC5)c5ccccc45)ncnc32)[C@H](O)[C@@H]1O` [Example 69, β-D-Ribofuranuronamido-N-cyclopropyl-1-deoxy-1-[6-[[2-[1-(2-N-morpholinoethyl)indol-3-yl]ethyl]amino]-9H-purin-9-yl]], for which the inhibition at 10 µM in experiment [1] (1E-5M) worked out at 90%; in experiment [2] (1E-5M), 93%. Further, the values for the inhibition at 0.1 µM in experiment [1] (1E-7M) and in experiment [2] (1E-7M) were 12% and 63%, respectively.

Regarding `CN(C)CCn1cc(CCNc2ncnc3c2ncn3[C@@H]2O[C@H](C(=O)NC3CC3)[C@@H](O)[C@H]2O)c2ccccc21` [Example 70, β-D-Ribofuranuronamido-N-cyclopropyl-1-deoxy-1-[6-[[2-[1-(2-N,N-dimethylaminoethyl)indol-3-yl]ethyl]amino]-9H-purin-9-yl]], the inhibition at 10 µM came out at 94% in experiment [1] (1E-5M) and 100% in experiment [2] (1E-5M). In addition, the inhibition at 0.1 µM came out at 44% in experiment [1] (1E-7M) and 91% in experiment [2] (1E-7M).

Regarding `O=C(NC1CC1)[C@H]1O[C@@H](n2cnc3c(NCCc4cn(CCN5CCCCC5)c5ccccc45)ncnc32)[C@H](O)[C@@H]1O` [Example 71 (base), β-D-Ribofuranuronamido-N-cyclopropyl-1-deoxy-1-[6-[[2-[1-(2-N-piperidinoethyl)indol-3-yl]ethyl]amino]-9H-purin-9-yl]], in experiment [1] (1E-5M, 10 µM), the “% displacement of the labeled ligand, A2, 1E-5M” value was 92%. In experiment [1] (1E-7M, 0.1 µM), the “% displacement of the labeled ligand, A2, 1E-7M” value was determined as 46%. Besides, the “% displacement of the labeled ligand, A1, 1E-5M” value in experiment [2] (1E-5M, 10 µM) was 99%. Besides, the “% displacement of the labeled ligand, A1, 1E-7M” value in experiment [2] (1E-7M, 0.1 µM) is recorded as 94%.
